Test results as given in patent US11053242B2, “[9,10-dimethoxy-3-(2-methylpropyl)-1H,2H,3H,4H,6H,7H,11BH-pyrido-[2,1-a]isoquinolin-2-yl]methanol and compounds, compositions and methods relating thereto” (Neurocrine Biosciences, Inc., priority 2015, dated 2021).

How the values were obtained:
[1] = molecular target: VMAT2 (human platelet homogenate) (Homo sapiens (Human), UniProt Q05940); test: Human VMAT2 Ki, slightly modified competition binding procedure (Table 11); conditions: 10 nM 3H-dihydrotetrabenazine;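 also: competition binding with 90 min incubation at 25 °C, after which filter-retained radioligand was measured by scintillation counting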
Sequence of VMAT2 (human platelet homogenate) (Q05940 whole entry): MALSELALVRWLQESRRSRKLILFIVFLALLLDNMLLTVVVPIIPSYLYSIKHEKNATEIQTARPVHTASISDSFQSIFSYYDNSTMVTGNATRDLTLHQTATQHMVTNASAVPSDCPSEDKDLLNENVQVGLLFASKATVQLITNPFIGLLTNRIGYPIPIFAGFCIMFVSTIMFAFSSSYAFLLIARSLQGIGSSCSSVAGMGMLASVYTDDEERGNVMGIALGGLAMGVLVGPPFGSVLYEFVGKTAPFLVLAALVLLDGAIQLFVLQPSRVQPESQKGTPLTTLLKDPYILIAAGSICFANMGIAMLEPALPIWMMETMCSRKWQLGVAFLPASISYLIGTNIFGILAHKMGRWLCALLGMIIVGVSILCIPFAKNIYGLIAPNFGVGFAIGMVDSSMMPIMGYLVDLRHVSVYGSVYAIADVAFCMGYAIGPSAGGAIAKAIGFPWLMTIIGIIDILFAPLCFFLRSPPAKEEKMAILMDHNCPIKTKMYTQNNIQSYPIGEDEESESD
Protocol: Following incubation at 25° C. for 90 minutes, bound radioligand was collected by rapid filtration onto GF/B glass fiber filters using a Unifilter-96 Harvester (PerkinElmer). Filter plates were pre-treated with 0.1% polyethylenimine and allowed to dry overnight, and following harvesting the filter plates were washed with 800 d VMAT2 binding buffer. Bound radioligand was quantified by scintillation counting using a Topcount NXT (PerkinElmer).

[2] = In vitro human intestinal S9 hydrolysis assay (formation of compound 1-1); conditions: human intestinal S9, 1 uM, 37° C., up to 60 minutes

Structure (SMILES)	Ki [1] [nM]	S9 Assay (ability to form compound 1-1) [2]
COc1cc2c(cc1OC)[C@H]1C[C@@H](COC(=O)N3CCC(C(=O)O)(N(C)C)CC3)[C@H](CC(C)C)CN1CC2 [Compound 5-43, 1-({[(2R,3S,11bR)-9,10-dimethoxy-3-(2-methylpropyl)-1H,2H,3H,4H,6H,7H,11bH-pyrido[2,1-a]isoquinolin-2-yl]methoxy}carbonyl)-4-(dimethylamino)piperidine-4-carboxylic acid]	> 500	+
COc1cc2c(cc1OC)[C@H]1C[C@@H](COC(=O)N(C)[C@H](C)C(=O)O)[C@H](CC(C)C)CN1CC2 [Compound 5-17, (2R)-2-[({[(2R,3S,11bR)-9,10-dimethoxy-3-(2-methylpropyl)-1H,2H,3H,4H,6H,7H,11bH-pyrido[2,1-a]isoquinolin-2-yl]methoxy}carbonyl)(methyl)amino]propanoic acid]	10 to 500	+
COc1cc2c(cc1OC)[C@H]1C[C@@H](COC(=O)CCCCC(=O)O)[C@H](CC(C)C)CN1CC2 [Compound 3-10]	> 500	+++
COc1cc2c(cc1OC)[C@H]1C[C@@H](COC(=O)N[C@@H](C)C(=O)O)[C@H](CC(C)C)CN1CC2 [Compound 5-47, (2S)-2-[({[(2R,3S,11bR)-9,10-dimethoxy-3-(2-methylpropyl)-1H,2H,3H,4H,6H,7H,11bH-pyrido[2,1-a]isoquinolin-2-yl]methoxy}carbonyl)amino]propanoic acid]	10 to 500	+
COc1cc2c(cc1OC)[C@H]1C[C@@H](COC(=O)N3CC4CCC(C3)N4)[C@H](CC(C)C)CN1CC2 [Compound 6-4, [(2R,3S,11bR)-9,10-dimethoxy-3-(2-methylpropyl)-1H,2H,3H,4H,6H,7H,11bH-pyrido[2,1-a]isoquinolin-2-yl]methyl 3,8-diazabicyclo[3.2.1]octane-3-carboxylate]	< 10	+
COc1cc2c(cc1OC)[C@H]1C[C@@H](COC(=O)CCC(=O)O)[C@H](CC(C)C)CN1CC2 [Compound 3-13]	10 to 500	++
COc1cc2c(cc1OC)[C@H]1C[C@@H](COC(=O)NCC(O)C(=O)O)[C@H](CC(C)C)CN1CC2 (stereo partly drawn) [Compound 5-11, 3-[({[(2R,3S,11bR)-9,10-dimethoxy-3-(2-methylpropyl)-1H,2H,3H,4H,6H,7H,11bH-pyrido[2,1-a]isoquinolin-2-yl]methoxy}carbonyl)amino]-2-hydroxypropanoic acid]	10 to 500	++
COc1cc2c(cc1OC)[C@H]1C[C@@H](COC(=O)N[C@@H](CC(C)C)C(=O)O)[C@H](CC(C)C)CN1CC2 [Compound 5-20, (2S)-2-[({[(2R,3S,11bR)-9,10-dimethoxy-3-(2-methylpropyl)-1H,2H,3H,4H,6H,7H,11bH-pyrido[2,1-a]isoquinolin-2-yl]methoxy}carbonyl)amino]-4-methylpentanoic acid]	10 to 500	++
COc1cc2c(cc1OC)[C@H]1C[C@@H](COC(=O)NCC[C@H](O)C(=O)O)[C@H](CC(C)C)CN1CC2 [Compound 5-56, (2S)-4-[({[(2R,3S,11bR)-9,10-dimethoxy-3-(2-methylpropyl)-1H,2H,3H,4H,6H,7H,11bH-pyrido[2,1-a]isoquinolin-2-yl]methoxy}carbonyl)amino]-2-hydroxybutanoic acid]	10 to 500	+
COc1cc2c(cc1OC)[C@H]1C[C@@H](COC(=O)N(C)CCCC(=O)O)[C@H](CC(C)C)CN1CC2 [Compound 5-25, 4-[({[(2R,3S,11bR)-9,10-dimethoxy-3-(2-methylpropyl)-1H,2H,3H,4H,6H,7H,11bH-pyrido[2,1-a]isoquinolin-2-yl]methoxy}carbonyl)(methyl)amino]butanoic acid]	> 500	+

More lines, now with the values ahead:

Ki [1] [nM]	S9 Assay (ability to form compound 1-1) [2]	Structure (SMILES)
< 10	+	COc1cc2c(cc1OC)[C@H]1C[C@@H](COC(=O)C3CCNCC3C)[C@H](CC(C)C)CN1CC2 (stereo partly drawn) [Compound 4-15, [(2R,3S,11bR)-9,10-dimethoxy-3-(2-methylpropyl)-1H,2H,3H,4H,6H,7H,11bH-pyrido[2,1-a]isoquinolin-2-yl]methyl 3-methylpiperidine-4-carboxylate]
< 10	++	COc1cc2c(cc1OC)[C@H]1C[C@@H](COC(=O)N(C)C(C(=O)O)C(C)C)[C@H](CC(C)C)CN1CC2 (stereo partly drawn) [Compound 5-32, 2-[({[(2R,3S,11bR)-9,10-dimethoxy-3-(2-methylpropyl)-1H,2H,3H,4H,6H,7H,11bH-pyrido[2,1-a]isoquinolin-2-yl]methoxy}carbonyl)(methyl)amino]-3-methylbutanoic acid]
< 10	++	COc1cc2c(cc1OC)[C@H]1C[C@@H](COC(=O)CC3CCCN3)[C@H](CC(C)C)CN1CC2 (stereo partly drawn) [Compound 4-28, [(2R,3S,11bR)-9,10-dimethoxy-3-(2-methylpropyl)-1H,2H,3H,4H,6H,7H,11bH-pyrido[2,1-a]isoquinolin-2-yl]methyl 2-(pyrrolidin-2-yl)acetate]
< 10	+	COc1cc2c(cc1OC)[C@H]1C[C@@H](COC(=O)NCCC(=O)O)[C@H](CC(C)C)CN1CC2 [Compound 5-1, 3-[({[(2R,3S,11bR)-9,10-dimethoxy-3-(2-methylpropyl)-1H,2H,3H,4H,6H,7H,11bH-pyrido[2,1-a]isoquinolin-2-yl]methoxy}carbonyl)amino]propanoic acid]
< 10	+	COc1cc2c(cc1OC)[C@H]1C[C@@H](COC(=O)N3C[C@@H](C)N[C@@H](C)C3)[C@H](CC(C)C)CN1CC2 [Compound 6-6, [(2R,3S,11bR)-9,10-dimethoxy-3-(2-methylpropyl)-1H,2H,3H,4H,6H,7H,11bH-pyrido[2,1-a]isoquinolin-2-yl]methyl (3R,5S)-3,5-dimethylpiperazine-1-carboxylate]
< 10	++	COc1cc2c(cc1OC)[C@H]1C[C@@H](COC(=O)N3CCNC[C@@H]3C)[C@H](CC(C)C)CN1CC2 [Compound 6-5, [(2R,3S,11bR)-9,10-dimethoxy-3-(2-methylpropyl)-1H,2H,3H,4H,6H,7H,11bH-pyrido[2,1-a]isoquinolin-2-yl]methyl (2S)-2-methylpiperazine-1-carboxylate]
< 10	+	COc1cc2c(cc1OC)[C@H]1C[C@@H](COC(=O)N3CCNCC3)[C@H](CC(C)C)CN1CC2 [Compound 6-1, [(2R,3S,11bR)-9,10-dimethoxy-3-(2-methylpropyl)-1H,2H,3H,4H,6H,7H,11bH-pyrido[2,1-a]isoquinolin-2-yl]methyl piperazine-1-carboxylate]
< 10	++	COc1cc2c(cc1OC)[C@H]1C[C@@H](COC(=O)[C@H]3CCNC3)[C@H](CC(C)C)CN1CC2 [Compound 4-7, [(2R,3S,11bR)-9,10-dimethoxy-3-(2-methylpropyl)-1H,2H,3H,4H,6H,7H,11bH-pyrido[2,1-a]isoquinolin-2-yl]methyl (3S)-pyrrolidine-3-carboxylate]
